Data on five molecules can be found in article PMC5808361 (Journal of Medicinal Chemistry, 2017).

In one experiment the target is PRMT3 (Homo sapiens, UniProt O60678). Nature of the experiment: PRMT3 biochemical assay.
In experiment [1] the test system is 31 other lysine methyltransferases, arginine methyltransferases, and DNA and RNA methyltransferases. Nature of the experiment: Methyltransferase selectivity assays. Format: biochemical. The settings on record: compound concentrations of 1, 5, and 20 μM.
Experiment [2] deals with 55 protein targets (47 GPCRs, five ion channels, and three transporters). Nature of the experiment: CEREP selectivity panel. It is filed as binding. The settings on record: at 10 μM.
The next experiment deals with human Flag-tagged PRMT3 (Homo sapiens, UniProt O60678). Nature of the experiment: Cellular PRMT3 assay. It is filed as cell-based.

Structures are written as SMILES. Where two headings read alike, the source gives them in different places.

Chain of PRMT3 (O60678 whole entry): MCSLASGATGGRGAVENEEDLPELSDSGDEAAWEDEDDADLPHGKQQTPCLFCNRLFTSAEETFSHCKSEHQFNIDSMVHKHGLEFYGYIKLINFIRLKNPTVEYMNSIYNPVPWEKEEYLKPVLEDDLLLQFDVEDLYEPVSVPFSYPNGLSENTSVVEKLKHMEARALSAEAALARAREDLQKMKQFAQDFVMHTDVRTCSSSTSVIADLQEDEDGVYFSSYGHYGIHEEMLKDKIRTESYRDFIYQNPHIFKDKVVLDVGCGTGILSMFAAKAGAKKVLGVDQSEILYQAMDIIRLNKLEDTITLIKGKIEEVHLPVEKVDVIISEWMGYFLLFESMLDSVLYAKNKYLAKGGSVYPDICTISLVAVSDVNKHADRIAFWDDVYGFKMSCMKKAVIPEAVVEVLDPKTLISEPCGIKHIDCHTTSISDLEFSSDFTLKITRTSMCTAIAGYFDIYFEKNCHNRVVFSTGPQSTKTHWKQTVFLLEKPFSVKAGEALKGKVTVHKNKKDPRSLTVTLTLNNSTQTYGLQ
Chain of human Flag-tagged PRMT3 (O60678 whole entry): as above

As to `CON(C)C(=O)CNC(=O)Nc1ccc2cnccc2c1` [Compound 22, 2-(3-(Isoquinolin-6-yl)ureido)-N-methoxy-N-methylacetamide], on PRMT3 (PRMT3 IC50 relative to compound 5), the “fold less potent than 5” value was “around 6 fold”.

With `O=C(NCC(=O)N1CC(F)(F)C(F)(F)C1)Nc1ccc2cnccc2c1` [Compound 29, 1-(Isoquinolin-6-yl)-3-(2-oxo-2-(3,3,4,4-tetrafluoropyrrolidin-1-yl)ethyl)urea], the “selectivity for PRMT3 over 31 other methyltransferases (in words)” value in experiment [1] is reported as “highly selective for PRMT3”. Also, the “% of inhibition (off-target activities)” value in experiment [2] was < 50%. The “effect on H4R3me2a levels (in words)” value on human Flag-tagged PRMT3 (1 μM compound, compared with catalytically dead PRMT3 mutant E335Q) is “matched with that of the catalytically dead PRMT3 mutant E335Q”.

On to `O=C(NCC(=O)N1CCCC1)Nc1cc2ccncc2cc1F` [Compound 36, 1-(7-Fluoroisoquinolin-6-yl)-3-(2-oxo-2-(pyrrolidin-1-yl)ethyl)urea], for which the “selectivity for PRMT3 over 31 other methyltransferases (in words)” value in experiment [1] was “highly selective for PRMT3”. Also, in experiment [2], the “% of inhibition (off-target activities)” value was < 50%. Besides, the “effect on H4R3me2a levels (in words)” value on human Flag-tagged PRMT3 is on record as “matched with that of the catalytically dead PRMT3 mutant E335Q”.

With `CC1CCC(C)N1C(=O)CNC(=O)Nc1ccc2cnccc2c1` (stereo not drawn) [Compound 30, 1-(2-(2,5-Dimethylpyrrolidin-1-yl)-2-oxoethyl)-3-(isoquinolin-6-yl)urea], in experiment [2], the “% of inhibition (off-target activities)” value is given as < 50%.

For `CN1CCN(C(=O)CNC(=O)Nc2ccc3cnccc3c2)CC1` [Compound 18, 1-(Isoquinolin-6-yl)-3-(2-(4-methylpiperazin-1-yl)-2-oxoethyl)urea], on PRMT3 (PRMT3 biochemical assay), the “PRMT3 inhibitory activity (in words)” value was “loss of the inhibitory activity”.
